Assay results: PubChem BioAssay (NCI)
Values joined by “and” are separate entries in the source; they are usually repeats but may differ in a detail not shown here. Equal values may be shown once.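 Interpolation was linear, between the two tested concentrations surrounding the appropriate level; five concentrations were tested over 48 hours in 96-well plates. The concentration for 50% growth inhibition is given as GI50. TGI is the concentration that stops growth completely.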

Key:
Experiment in all cases: NCI tumour cell line growth inhibition, 48 h
MOLT-4 leukemia = test system: MOLT-4 leukemia
U251 CNS = test system: U251 CNS
UACC-62 melanoma = test system: UACC-62 melanoma
SR leukemia = test system: SR leukemia
UO-31 renal = test system: UO-31 renal
SK-OV-3 ovarian = test system: SK-OV-3 ovarian
A549 NSCLC = test system: A549 NSCLC
ACHN renal = test system: ACHN renal
SN12C renal = test system: SN12C renal
UACC-257 melanoma = test system: UACC-257 melanoma

Row | SMILES | TGI (MOLT-4 leukemia) | TGI (U251 CNS) | TGI (UACC-62 melanoma) | TGI (SR leukemia) | TGI (UO-31 renal) | TGI (SK-OV-3 ovarian) | TGI (A549 NSCLC) | TGI (ACHN renal) | TGI (SN12C renal) | TGI (UACC-257 melanoma) | GI50 (MOLT-4 leukemia) | GI50 (U251 CNS) | GI50 (UACC-62 melanoma) | GI50 (SR leukemia) | GI50 (UO-31 renal) | GI50 (SK-OV-3 ovarian) | GI50 (A549 NSCLC) | GI50 (ACHN renal) | GI50 (SN12C renal) | GI50 (UACC-257 melanoma)
1 | Nc1ncnc2c1ncn2CCCCC(=O)O | > 100 µM | > 100 µM | > 100 µM | > 100 µM | > 100 µM | > 100 µM | > 100 µM | > 100 µM | > 100 µM | > 100 µM |  |  |  |  |  |  |  |  |  | 
2 | Cc1ccc(NC(=O)CCC(=O)C2Cc3ccccc3C2=O)cc1C (stereo unspecified) | > 100 µM | > 100 µM | > 100 µM | > 100 µM | > 100 µM | > 100 µM | > 100 µM | > 100 µM | > 100 µM | > 100 µM |  |  |  |  |  |  |  |  |  | 
3 | C1=C\CCCCN2CC[C@H]3[C@H](CCCC/C=C\CCCN4C[C@@H](CCCCC/1)C[C@@H]3C4)C2 | 17.4 µM | 16.5 µM | 25.9 µM | 4.93 µM | 10.5 µM | 26.2 µM | 26.8 µM | 10.5 µM | 23.9 µM | 3.5 µM | 3.67 µM | 4.25 µM | 13.2 µM | 1.85 µM | 4.35 µM | 13.3 µM | 12.1 µM | 2.8 µM | 11.6 µM | 1.74 µM
4 | COc1cc(/C=C/c2ccnc3ccccc23)cc(OC)c1OC | 13.4 µM and 26.2 µM | 44.1 µM and 22.8 µM | 30.7 µM and > 100 µM |  | > 100 µM | 46.4 µM and 40.3 µM | 31.1 µM and > 100 µM | 92 µM and > 100 µM | 31 µM and > 100 µM | 91.6 µM and > 100 µM | 2.47 µM | 3.01 µM |  | 0.755 µM |  | 5.68 µM | 3.39 µM | 4.89 µM | 4.4 µM | 
5 | C/C(=N\NC(=S)N1CCN(c2ccccn2)CC1)c1cccc2cccnc12 | > 62.2 µM | > 29.7 µM | 27.8 µM | > 38.7 µM | > 56.5 µM | 43.5 µM | > 100 µM | > 100 µM | 34.8 µM | > 100 µM |  |  |  |  |  |  |  |  |  | 
6 | CC(C)(C)OC(=O)N1Cc2cc3ccccc3nc2C1CO (stereo unspecified) | > 100 µM | > 100 µM | > 100 µM | > 100 µM | > 100 µM | > 100 µM | > 100 µM | > 100 µM | > 100 µM | > 100 µM | > 100 µM | > 100 µM | > 100 µM | > 100 µM | > 100 µM | > 100 µM | > 100 µM | > 100 µM | > 100 µM | > 100 µM
7 | CCc1cccc(NC(=O)c2cc(/C=C/c3ccccc3)[nH]c(=S)n2)c1 | > 100 µM | > 100 µM | > 100 µM | > 100 µM | > 100 µM | > 100 µM | > 100 µM | > 100 µM | > 100 µM | > 100 µM |  |  |  |  |  |  |  |  |  | 
8 | CC[P+]1(c2ccccc2)CCCCC1 | > 100 µM | > 100 µM | > 100 µM | > 100 µM | > 100 µM | > 100 µM | > 100 µM | > 100 µM | > 100 µM | > 100 µM |  |  |  |  |  |  |  |  |  | 
9 | CCCCNCCCCCNc1cc(OC)cc2cccnc12 | 41.1 µM | > 100 µM | 40.3 µM | > 100 µM | 27.2 µM | 35.9 µM | 51.3 µM | > 100 µM | > 100 µM | 32.2 µM | 18 µM | 42.6 µM | 19.9 µM | 28.6 µM | 13.4 µM | 18.4 µM | 20.7 µM | 45.3 µM | 36.5 µM | 16.1 µM
10 | Cc1nn(-c2ccccc2)c2nc(C)n(-c3ccc(Br)cc3)c(=O)c12 | > 100 µM | > 100 µM | > 100 µM | > 100 µM | 36.7 µM | > 100 µM | > 100 µM | > 100 µM | > 100 µM | > 100 µM | 0.53 µM | 0.479 µM | 0.428 µM | 0.439 µM | 0.631 µM | 1.28 µM | 0.927 µM | 0.584 µM | 0.721 µM | 0.768 µM
11 | COC(=O)[C@H](CCCCNC(=O)OCc1ccccc1)NC(=O)[C@@H](NC(=O)Nc1cc(C(F)(F)F)cc(C(F)(F)F)c1)C(C)C | > 10 µM | > 10 µM | > 10 µM | > 10 µM | > 10 µM | > 10 µM | > 10 µM | > 10 µM | > 10 µM | > 10 µM | > 10 µM | > 10 µM | > 10 µM | > 10 µM | > 10 µM | > 10 µM | > 10 µM | > 10 µM | > 10 µM | > 10 µM
12 | C=C1C(C(=O)O)C1C(=O)O (stereo unspecified) | > 100 µM | > 100 µM | > 100 µM | > 100 µM | > 100 µM | > 100 µM | > 100 µM | > 100 µM | > 100 µM | > 100 µM |  |  |  |  |  |  |  |  |  | 
13 | NC(=O)c1ncn2c(=O)n(CCCl)nnc12 | 567 µM | 447 µM | 137 µM | 801 µM | 521 µM | 130 µM | 628 µM | 385 µM | 546 µM | 391 µM | 37.2 µM | 99.2 µM | 44.9 µM | 57.9 µM |  |  |  | > 71.2 µM |  | 
14 | CCC(C(=O)[C@@H](C)[C@@H](O)[C@H](C)[C@@H]1O[C@@H]([C@@H](CC)C(=O)ONC(=O)c2ccccc2)CC[C@@H]1C)[C@H]1O[C@]2(C=CC(=O)[C@]3(CC[C@@](C)([C@H]4CC[C@](O)(CC)[C@H](C)O4)O3)O2)[C@H](C)C[C@@H]1C (stereo partly specified) | 3.32 µM | 1.6 µM | 2.93 µM | 0.617 µM | 1.79 µM | 10.1 µM | 1.63 µM | 2.03 µM | 1.49 µM | 5.61 µM | 0.729 µM | 0.11 µM | 1.25 µM | 0.0674 µM | 0.403 µM | 2.79 µM | 0.168 µM | 0.641 µM | 0.0614 µM | 0.255 µM
15 | CCc1ccccc1NC(=O)C(=O)C(C#N)c1c(Cl)cccc1Cl (stereo unspecified) | > 100 µM | > 100 µM | > 100 µM | > 100 µM | > 100 µM | > 100 µM | > 100 µM | > 100 µM | > 100 µM | > 100 µM |  |  |  |  |  |  |  |  |  | 
